{
  "source": "paper PMC6602958",
  "about": "“Pharmacokinetics of anti-infectious reagents in silkworms” (Scientific Reports, 2019)",
  "key": {"cytochrome P450 [1]": {"system": "cytochrome P450", "test": "Metabolism of luciferin derivatives in cultured silkworm midgut (P450-Glo, luminometer)", "format": "in vitro ADME, Bombyx mori (silkworm)", "conditions": "silkworm midgut incubated with luciferin substrate at 30 °C"}, "cytochrome P450 [2]": {"system": "cytochrome P450", "test": "Metabolism of luciferin-ME by microsomal fractions from the silkworm midgut", "format": "biochemical, Bombyx mori (silkworm)", "conditions": "Lineweaver-Burk plot", "protocol": "Silkworms were immersed in buffer (10 mM HEPES/NaOH, 0.9% NaCl, pH7.9), and organs were isolated and homogenized in a buffer (100 mM sodium phosphate, 1 mM EDTA, 2 mM benzamidine, 10% glycerol) by a glass-Teflon homogenizer. The tissue homogenates were centrifuged at 9000 × g for 10 min at 4 °C. The supernatant was further centrifuged at 49,000 rpm for 30 min at 4 °C. The precipitate was suspended in buffer (100 mM sodium phosphate, 1 mM EDTA, 2 mM benzamidine, 10% glycerol) and frozen at −80 °C after flash-freezing with liquid nitrogen until use.\nMicrosomes and substrates were suspended in final 0.25 ml buffer comprising 0.1 M sodium phosphate buffer (pH 7.5) and 0.1 mM EDTA, and pre-incubated for 5 min at 30 °C. A cytochrome P450 reaction was initiated by adding a NADPH-generating system containing 3.3 mM glucose-6-phosphate, 1.25 mM NADP, 3.3 mM MgCl2, and 0.25 U glucose-6-phosphate dehydrogenase as a final concentration.\nMicrosome fractions were prepared from the silkworm midgut, and incubated with luciferin-ME for 5 min at 30°C. The reactions were initiated by the addition of an NADPH-regeneration system. Production of luciferin was determined using a luminometer. (a) Titration of luciferin-ME. (b) Lineweaver Burk plot made from the titration curve."}, "Candida albicans [3]": {"system": "Candida albicans", "test": "Antifungal activity (MIC) by micro dilution with or without silkworm hemolymph", "format": "cell-based", "protocol": "Antimicrobial and antifungal activities of each compound were measured by a micro dilution method[19],[20]. To measure protein binding to antifungal activity, silkworm hemolymph was collected by cutting the pseudopodium using scissors, and centrifuged at 3000 rpm for 5 min at 4 °C."}, "Candida albicans [4]": {"system": "Candida albicans", "test": "Silkworm infection model with Candida albicans (ED50)", "format": "in vivo, Bombyx mori (silkworm)", "conditions": "silkworm infection model with Candida albicans"}, "cytochrome P450 [5]": {"system": "cytochrome P450", "test": "Decay of cytochrome P450 substrates in in vitro culture of the silkworm midgut (HPLC)", "conditions": "for HPLC peak area of substrate, Sample 1 / HPLC peak area of substrate, Sample 2: midgut culture, raw data of Fig. 3", "protocol": "Silkworm midgut was incubated in medium with cytochrome P450 substrates at 30 °C. The samples were collected, extracted by acetone, and evaporated. The amounts of substrates were determined by HPLC analysis.\nSilkworms (5th instar, 5 days) were dissected in a buffer (10 mM HEPES/NaOH, 0.9% NaCl, pH 7.9), and isolated organs were incubated with 3 mL TC-100 medium containing 10% fetal bovine serum, 50 µg/ml gentamicin, and substrates for the metabolic reaction. Whole samples (medium and organ) were homogenized and extracted by equal volumes of acetone followed by evaporation. Extracted samples were dissolved in 50 mM NaOAc buffer and treated with beta-glucosidase to measure the fluorescence of metabolized 7-ethoxycoumarin[6]. […] Samples for HPLC were dissolved in 50% methanol. HPLC analysis was performed using a PEGASIL ODS SP column (φ4.5 mm × 250 mm) with isocratic elution at a flow rate of 1 ml/min."}, "[6]": {"conditions": "human serum; ref Schafer-Korting et al. 27; cited from earlier work"}, "[7]": {"test": "Protein-binding capacity in silkworm hemolymph (filter unit, HPLC)"}, "[8]": {"test": "Pharmacokinetics of antibiotics in silkworm hemolymph after injection (HPLC)", "conditions": "for HPLC peak area in hemolymph: raw data of Fig. 1; for Cltot (total body clearance): silkworm, injection into hemolymph, dose per compound 10-50 mg/kg", "protocol": "Antibiotics were injected into silkworm hemolymph and hemolymph was collected by cutting the legs at the indicated time.\nAntibiotics dissolved in saline were injected into the hemolymph of 5th instar silkworms using a 1-mL syringe attached to a 27 G needle. Hemolymph was harvested from abdominal appendages by cutting them with scissors at the indicated time-points after administration, and mixed with an equal volume of acetone. Samples were centrifuged at 15,000 rpm for 5 min at 4 °C, and the supernatants were evaporated with a centrifuge evaporator[18]. The dried materials were dissolved in 50% methanol and filtrated through a 0.45-µm filter. […] The amount of antibiotics in the sample was quantified from the peak area of the chromatogram."}, "[9]": {"conditions": "rabbit, dose 10 mg/kg; cited from earlier work"}, "[10]": {"set-up": "method as in PMID 3210270", "conditions": "sheep, dose 10 mg/kg; cited from earlier work"}, "[11]": {"conditions": "read-out: MIC with 10% hemolymph (B), with 10% silkworm hemolymph"}, "[12]": {"conditions": "without silkworm hemolymph, read-out: MIC without hemolymph (A)"}},
  "note": "Like-named read-outs stand apart in the source and are kept apart here.",
  "data": [
    {"smiles": "COc1ccc2nc(C3=NC(C(=O)O)CS3)sc2c1", "note": "(stereo not drawn) [Luciferin-ME]", "values": [
      {"measurement": "Production of luciferin (RFU/organ)", "setting": "cytochrome P450 [1]", "value": "58,500 RFU/organ"},
      {"measurement": "Km", "setting": "cytochrome P450 [2]", "value": 7.8, "unit": "µM"},
      {"measurement": "Vmax", "setting": "cytochrome P450 [2]", "value": 3.0, "unit": "pmol/min/mg protein"}
    ]},
    {"smiles": "CC(=O)N1CCN(c2ccc(OCC3COC(Cn4ccnc4)(c4ccc(Cl)cc4Cl)O3)cc2)CC1", "note": "(stereo not drawn) [Ketoconazole]", "values": [
      {"measurement": "MIC", "setting": "Candida albicans [3]; [11]", "value": 1.3, "unit": "µg/mL"},
      {"measurement": "MIC", "setting": "Candida albicans [3]; [12]", "value": 0.04, "unit": "µg/mL"},
      {"measurement": "ED50", "setting": "Candida albicans [4]", "value": "> 10", "unit": "mg/kg"},
      {"measurement": "Metabolism in the silkworm midgut (in words)", "setting": "cytochrome P450 [5]; in vitro organ culture, up to 20 h incubation", "value": "metabolized in the silkworm midgut"},
      {"measurement": "HPLC peak area of substrate, Sample 1", "setting": "cytochrome P450 [5]; 0 h", "value": 250139},
      {"measurement": "HPLC peak area of substrate, Sample 2", "setting": "cytochrome P450 [5]; 0 h", "value": 234783},
      {"measurement": "HPLC peak area of substrate, Sample 1", "setting": "cytochrome P450 [5]; 1 h", "value": 277669},
      {"measurement": "HPLC peak area of substrate, Sample 2", "setting": "cytochrome P450 [5]; 1 h", "value": 251170},
      {"measurement": "HPLC peak area of substrate, Sample 1", "setting": "cytochrome P450 [5]; 4 h", "value": 205212},
      {"measurement": "HPLC peak area of substrate, Sample 2", "setting": "cytochrome P450 [5]; 4 h", "value": 213216},
      {"measurement": "HPLC peak area of substrate, Sample 1", "setting": "cytochrome P450 [5]; 20 h", "value": 217123},
      {"measurement": "HPLC peak area of substrate, Sample 2", "setting": "cytochrome P450 [5]; 20 h", "value": 164912},
      {"measurement": "Protein binding (%) mammal", "setting": "[6]", "value": 99, "unit": "%"},
      {"measurement": "fraction unbound at 10 min, 10 µM", "setting": "[7]", "value": "< 0.01"},
      {"measurement": "Protein-binding capacity in silkworm hemolymph (in words)", "setting": "[7]; silkworm hemolymph", "value": "high protein-binding capacities in silkworm hemolymph"}
    ]},
    {"smiles": "CN(C)[C@@H]1C(O)=C(C(N)=O)C(=O)[C@@]2(O)C(O)=C3C(=O)c4c(O)cccc4[C@@](C)(O)[C@H]3C[C@@H]12", "note": "[Tetracycline]", "values": [
      {"measurement": "HPLC peak area in hemolymph", "setting": "[8]; 0.1 min after injection", "value": 10505876},
      {"measurement": "HPLC peak area in hemolymph", "setting": "[8]; 1 min after injection", "value": 8079061},
      {"measurement": "HPLC peak area in hemolymph", "setting": "[8]; 5 min after injection", "value": 4188656},
      {"measurement": "HPLC peak area in hemolymph", "setting": "[8]; 10 min after injection", "value": 3076056},
      {"measurement": "HPLC peak area in hemolymph", "setting": "[8]; 20 min after injection", "value": 2727973},
      {"measurement": "HPLC peak area in hemolymph", "setting": "[8]; 30 min after injection", "value": 1928231},
      {"measurement": "HPLC peak area in hemolymph", "setting": "[8]; 60 min after injection", "value": 2239912},
      {"measurement": "HPLC peak area in hemolymph", "setting": "[8]; 90 min after injection", "value": 1941121},
      {"measurement": "HPLC peak area in hemolymph", "setting": "[8]; 120 min after injection", "value": 1803643},
      {"measurement": "HPLC peak area in hemolymph", "setting": "[8]; 180 min after injection", "value": 1414738},
      {"measurement": "HPLC peak area in hemolymph", "setting": "[8]; 240 min after injection", "value": 1202608},
      {"measurement": "Time-course of the decrease in concentration in hemolymph (in words)", "setting": "[8]; after administration into hemolymph, alpha and beta phase, two-compartment model", "value": "biphasic"},
      {"measurement": "Cltot (total body clearance)", "setting": "[8]; two-compartment model", "value": 0.07, "unit": "mL/g/h"},
      {"measurement": "Cltot", "setting": "[9]", "value": 0.35, "unit": "mL/g/h"}
    ]},
    {"smiles": "CO[C@H]1/C=C/O[C@@]2(C)Oc3c(C)c(O)c4c(O)c(c(/C=N/N5CCN(C)CC5)c(O)c4c3C2=O)NC(=O)/C(C)=C\\C=C\\[C@H](C)[C@H](O)[C@@H](C)[C@@H](O)[C@@H](C)[C@H](OC(C)=O)[C@@H]1C", "note": "[Rifampicin]", "values": [
      {"measurement": "HPLC peak area in hemolymph", "setting": "[8]; 1 min after injection", "value": 1080705},
      {"measurement": "HPLC peak area in hemolymph", "setting": "[8]; 10 min after injection", "value": 246911},
      {"measurement": "HPLC peak area in hemolymph", "setting": "[8]; 30 min after injection", "value": 125859},
      {"measurement": "HPLC peak area in hemolymph", "setting": "[8]; 45 min after injection", "value": 103195},
      {"measurement": "HPLC peak area in hemolymph", "setting": "[8]; 75 min after injection", "value": 64446},
      {"measurement": "HPLC peak area in hemolymph", "setting": "[8]; 90 min after injection", "value": 59307},
      {"measurement": "HPLC peak area in hemolymph", "setting": "[8]; 150 min after injection", "value": 20209},
      {"measurement": "HPLC peak area in hemolymph", "setting": "[8]; 180 min after injection", "value": 11026},
      {"measurement": "HPLC peak area in hemolymph", "setting": "[8]; 240 min after injection", "value": 4977},
      {"measurement": "HPLC peak area in hemolymph", "setting": "[8]; 360 min after injection", "value": 2816},
      {"measurement": "Time-course of the decrease in concentration in hemolymph (in words)", "setting": "[8]; in vivo", "value": "biphasic"},
      {"measurement": "Difference in total clearance between silkworm and mammal", "setting": "[8]; silkworm (Bombyx mori), in vivo", "value": 10, "unit": "fold"},
      {"measurement": "Cltot (total body clearance)", "setting": "[8]; two-compartment model", "value": 2.11, "unit": "mL/g/h"},
      {"measurement": "Cltot", "setting": "[10]", "value": 0.31, "unit": "mL/g/h"},
      {"measurement": "Vdss", "setting": "[10]", "value": 1.3, "unit": "mL/g"}
    ]},
    {"smiles": "Clc1ccccc1C(c1ccccc1)(c1ccccc1)n1ccnc1", "note": "[Clotrimazole]", "values": [
      {"measurement": "MIC", "setting": "Candida albicans [3]; [11]", "value": 1.3, "unit": "µg/mL"},
      {"measurement": "MIC", "setting": "Candida albicans [3]; [12]", "value": 0.04, "unit": "µg/mL"},
      {"measurement": "ED50", "setting": "Candida albicans [4]", "value": "> 10", "unit": "mg/kg"},
      {"measurement": "fraction unbound at 10 min, 10 µM", "setting": "in vitro", "value": "< 0.01"}
    ]}
  ]
}
